According to ChEMBL document CHEMBL3734751, “Discovery of novel, potent and low-toxicity angiotensin II receptor type 1 (AT1) blockers: Design, synthesis and biological evaluation of 6-substituted aminocarbonyl benzimidazoles with a chiral center” (Eur J Med Chem, 2015):
Positions count from the first letter of the chain named. Calls of active or inactive are those of the source. The calls are words filed in the database; no cut-off is given here.

Legend:
[1] = target: T1, Type-1 angiotensin II receptor (Homo sapiens, UniProt P30556); experiment: Displacement of [125I]Sar1Ile8-Ang2 from human AT1 receptor expressed in CHO-K1 cell membranes after 180 mins
T1 sequence (P30556 whole entry): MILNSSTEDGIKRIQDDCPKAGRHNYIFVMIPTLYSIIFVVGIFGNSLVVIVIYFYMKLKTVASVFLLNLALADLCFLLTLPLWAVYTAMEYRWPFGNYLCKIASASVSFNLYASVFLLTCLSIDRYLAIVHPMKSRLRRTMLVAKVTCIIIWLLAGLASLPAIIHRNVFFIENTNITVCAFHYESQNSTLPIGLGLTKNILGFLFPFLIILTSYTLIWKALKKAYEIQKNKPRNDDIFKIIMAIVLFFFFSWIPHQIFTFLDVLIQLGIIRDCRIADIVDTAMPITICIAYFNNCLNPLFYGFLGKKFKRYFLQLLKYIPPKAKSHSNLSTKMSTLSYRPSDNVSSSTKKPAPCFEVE

Rattus norvegicus [2] = experiment: Antihypertensive activity in po dosed spontaneously hypertensive rat assessed as decrease in mean blood pressure by tail-cuff plethysmography; type: functional, organism-based
[3] = target: T2, Type-1 angiotensin II receptor (Oryctolagus cuniculus, UniProt P34976); experiment: Antagonist activity against AT1 receptor in Japanese White rabbit aortic strips assessed as reduction in angiotension-2-induced contractile response after 60 mins by Schild's plot analysis; details: read-out: pA2 (converted)
T2 sequence (P34976 whole entry): T1 sequence (P30556 whole entry) with I2M, V49A, I254V, I270V, R272H, R311K, T349S, A353V

Rattus norvegicus [4] = experiment: AUC in Sprague-Dawley rat at 3 mg/kg, iv by LC-MS/MS; type: ADME, organism-based; details: in vivo
[5] = AUC in Sprague-Dawley rat at 30 mg/kg, po by LC-MS/MS; type: ADME, organism-based; details: in vivo
[6] = Terminal half-life in Sprague-Dawley rat at 3 mg/kg, iv by LC-MS/MS; type: ADME, organism-based; details: in vivo, read-out: beta t1/2 (converted)
[7] = Terminal half-life in Sprague-Dawley rat at 30 mg/kg, po by LC-MS/MS; type: ADME, organism-based; details: in vivo, read-out: beta t1/2 (converted)
[8] = Cmax in Sprague-Dawley rat at 30 mg/kg, po by LC-MS/MS; type: ADME, organism-based; design: dose 30 mg/kg, route oral; details: in vivo
[9] = Tmax in Sprague-Dawley rat at 30 mg/kg, po by LC-MS/MS; type: ADME, organism-based; details: in vivo
[10] = Volume of distribution at steady state in Sprague-Dawley rat at 3 mg/kg, iv by LC-MS/MS; type: ADME, organism-based; details: in vivo, read-out: Vdss
[11] = Oral bioavailability in Sprague-Dawley rat at 30 mg/kg, by LC-MS/MS; type: ADME, organism-based; details: in vivo
[12] = Toxicity in Kunming mouse at 5 g/kg, po assessed as mortality after 2 weeks; type: organism-based; details: in vivo, 5000 mg/kg
[13] = Toxicity in Kunming mouse at 4 g/kg, po assessed as mortality after 2 weeks; type: organism-based; details: in vivo, 4000 mg/kg
[14] = Toxicity in Kunming mouse at 3 g/kg, po assessed as mortality after 2 weeks; type: organism-based; details: in vivo, 3000 mg/kg
[15] = Toxicity in Kunming mouse at 2 g/kg, po assessed as mortality after 2 weeks; type: organism-based; details: in vivo, 2000 mg/kg
[16] = Toxicity in orally dosed Kunming mouse assessed as mortality after 2 weeks; type: organism-based; details: in vivo, po
[17] = Mutagenicity in Kunming mouse bone marrow cells assessed as micronucleated polychromatic erythrocytes level at 0.5 g/kg by May-Grunwald-Giemsa staining-based microscopic analysis (reference value: 3.2 +/- 1.62 ); type: toxicity, cell-based, Bone marrow cell; details: in vivo, 500 mg/kg
[18] = Mutagenicity in Kunming mouse bone marrow cells assessed as micronucleated polychromatic erythrocytes level at 1 g/kg by May-Grunwald-Giemsa staining-based microscopic analysis (reference value: 3.2 +/- 1.62 ); type: toxicity, cell-based, Bone marrow cell; details: in vivo, 1000 mg/kg
[19] = Mutagenicity in Kunming mouse bone marrow cells assessed as micronucleated polychromatic erythrocytes level at 2 g/kg by May-Grunwald-Giemsan staining-based microscopic analysis (reference value: 3.2 +/- 1.62 ); type: toxicity, cell-based, Bone marrow cell; details: in vivo, 2000 mg/kg
[20] = Mutagenicity in Kunming mouse bone marrow cells assessed as ratio of polychromatic erythrocyte level to norchromatic erythrocyte level at 0.5 g/kg by May-Grunwald-Giemsa staining-based microscopic analysis (reference value: 1.32 +/- 0.22 ); type: toxicity, cell-based, Bone marrow cell; details: in vivo, 500 mg/kg
[21] = Mutagenicity in Kunming mouse bone marrow cells assessed as ratio of polychromatic erythrocyte level to norchromatic erythrocyte level at 1 g/kg by May-Grunwald-Giemsa staining-based microscopic analysis (reference value: 1.32 +/- 0.22 ); type: toxicity, cell-based, Bone marrow cell; details: in vivo, 1000 mg/kg
[22] = Mutagenicity in Kunming mouse bone marrow cells assessed as ratio of polychromatic erythrocyte level to norchromatic erythrocyte level at 2 g/kg by May-Grunwald-Giemsa staining-based microscopic analysis (reference value: 1.32 +/- 0.22 ); type: toxicity, cell-based, Bone marrow cell; details: in vivo, 2000 mg/kg
Mus musculus [23] = experiment: Hepatotoxicity in Kunming mouse assessed as serum ALT level at 0.5 g/kg by automatic biochemical analyser (reference value: 44.33 +/- 6.50 U/T); type: toxicity, organism-based; details: in vivo, 500 mg/kg
Mus musculus [24] = experiment: Hepatotoxicity in Kunming mouse assessed as serum ALT level at 1 g/kg by automatic biochemical analyser (reference value: 44.33 +/- 6.50 U/T); type: toxicity, organism-based; details: in vivo, 1000 mg/kg
Mus musculus [25] = experiment: Hepatotoxicity in Kunming mouse assessed as serum ALT level at 2 g/kg by automatic biochemical analyser (reference value: 44.33 +/- 6.50 U/T); type: toxicity, organism-based; details: in vivo, 2000 mg/kg
Mus musculus [26] = experiment: Hepatotoxicity in Kunming mouse assessed as serum AST level at 0.5 g/kg by automatic biochemical analyser (reference value: 133.44 +/- 25.05 U/T); type: toxicity, organism-based; details: in vivo, 500 mg/kg
Mus musculus [27] = experiment: Hepatotoxicity in Kunming mouse assessed as serum AST level at 1 g/kg by automatic biochemical analyser (reference value: 133.44 +/- 25.05 U/T); type: toxicity, organism-based; details: in vivo, 1000 mg/kg
Mus musculus [28] = experiment: Hepatotoxicity in Kunming mouse assessed as serum AST level at 2 g/kg by automatic biochemical analyser (reference value: 133.44 +/- […] U/T); type: toxicity, organism-based; details: in vivo, 2000 mg/kg
Mus musculus [29] = experiment: Renal toxicity in Kunming mouse assessed as serum urea level at 0.5 g/kg by automatic biochemical analyser (reference value: 9.95 +/- 1.39 mmol); type: organism-based; details: in vivo, 500 mg/kg
Mus musculus [30] = experiment: Renal toxicity in Kunming mouse assessed as serum urea level at 1 g/kg by automatic biochemical analyser (reference value: 9.95 +/- 1.39 mmol); type: organism-based; details: in vivo, 1000 mg/kg
Mus musculus [31] = experiment: Renal toxicity in Kunming mouse assessed as serum urea level at 2 g/kg by automatic biochemical analyser (reference value: 9.95 +/- 1.39 mmol); type: organism-based; details: in vivo, 2000 mg/kg
Mus musculus [32] = experiment: Renal toxicity in Kunming mouse assessed as serum creatinin level at 0.5 g/kg by automatic biochemical analyser (reference value: 13.78 +/- 2.64 umol/L); type: organism-based; details: in vivo, 500 mg/kg
Mus musculus [33] = experiment: Renal toxicity in Kunming mouse assessed as serum creatinin level at 1 g/kg by automatic biochemical analyser (reference value: 13.78 +/- 2.64 umol/L); type: organism-based; details: in vivo, 1000 mg/kg
Mus musculus [34] = experiment: Renal toxicity in Kunming mouse assessed as serum creatinin level at 2 g/kg by automatic biochemical analyser (reference value: 13.78 +/- 2.64 umol/L); type: organism-based; details: in vivo, 2000 mg/kg
Rattus norvegicus [35] = experiment: Antihypertensive activity in spontaneously hypertensive rat model assessed as decrease in systolic and diastolic blood pressure at 30 mg/kg, po administered daily for 14 days by tail-cuff plethysmography; type: functional, organism-based
Rattus norvegicus [36] = experiment: Antihypertensive activity in spontaneously hypertensive rat model assessed as decrease in systolic and diastolic blood pressure at 30 mg/kg, po administered daily for 14 days and measured after 2 days of drug withdrawal by tail-cuff plethysmography; type: functional, organism-based
Rattus norvegicus [37] = experiment: Antihypertensive activity in spontaneously hypertensive rat model assessed as decrease in heart rate at 30 mg/kg, po administered daily for 14 days and measured after 2 days of drug withdrawal by tail-cuff plethysmography; type: functional, organism-based
Rattus norvegicus [38] = experiment: Antihypertensive activity in spontaneously hypertensive rat model assessed as decrease in heart rate at 30 mg/kg, po administered daily for 14 days by tail-cuff plethysmography; type: functional, organism-based

**Q.** For `CCCc1nc2c(C)cc(C(=O)NC[C@H](C)c3ccccc3)cc2n1Cc1ccc(-c2ccccc2-c2nnn[nH]2)cc1`, which IC50 [1] is on record?
**A.** 1.1 nM

**Q.** And the Activity (Rattus norvegicus [2])?
**A.** Dose-dependent effect

**Q.** And the Kb [3]?
**A.** 1.78 nM

**Q.** What about the AUC (Rattus norvegicus [4]) of the same compound?
**A.** 12200 ng·h/mL

**Q.** What about the AUC [5] of the same compound?
**A.** 51500 ng·h/mL

**Q.** And the half-life [6]?
**A.** 12.6 h

**Q.** What about the half-life [7] of the same compound?
**A.** 13 h

**Q.** And the Cmax [8]?
**A.** 14600 ng/mL

**Q.** What about the Tmax [9] of the same compound?
**A.** 0.75 h

**Q.** What about the Vd [10] of the same compound?
**A.** 11 L/kg

**Q.** What about the bioavailability [11] of the same compound?
**A.** 42%

**Q.** And the mortality at 336 h [12]?
**A.** 90%

**Q.** What about the mortality at 336 h [13] of the same compound?
**A.** 50%

**Q.** What about the mortality at 336 h [14] of the same compound?
**A.** 30%

**Q.** What about the mortality at 336 h [15] of the same compound?
**A.** 0%

**Q.** What about the LD50 at 336 h [16] of the same compound?
**A.** 3640 mg/kg

**Q.** And the Activity [17]?
**A.** 3

**Q.** What about the Activity [18] of the same compound?
**A.** 3.8

**Q.** What about the Activity [19] of the same compound?
**A.** 4.3

**Q.** What about the Ratio [20] of the same compound?
**A.** 1.34

**Q.** What about the Ratio [21] of the same compound?
**A.** 1.28

**Q.** And the Ratio [22]?
**A.** 1.64

**Q.** What about the Activity (Mus musculus [23]) of the same compound?
**A.** 42.7 U/L

**Q.** And the Activity (Mus musculus [24])?
**A.** 52.6 U/L

**Q.** And the Activity (Mus musculus [25])?
**A.** 91.4 U/L

**Q.** And the Activity (Mus musculus [26])?
**A.** 126 U/L

**Q.** And the Activity (Mus musculus [27])?
**A.** 141 U/L

**Q.** And the Activity (Mus musculus [28])?
**A.** 217 U/L

**Q.** And the Activity (Mus musculus [29])?
**A.** 8.71 mM

**Q.** And the Activity (Mus musculus [30])?
**A.** 10 mM

**Q.** What about the Activity (Mus musculus [31]) of the same compound?
**A.** 11.2 mM

**Q.** What about the Activity (Mus musculus [32]) of the same compound?
**A.** 10.3 µmol/L

**Q.** And the Activity (Mus musculus [33])?
**A.** 8.3 µmol/L

**Q.** And the Activity (Mus musculus [34])?
**A.** 6.14 µmol/L

**Q.** And the Activity (Rattus norvegicus [35])?
**A.** Active

**Q.** What about the Activity (Rattus norvegicus [36]) of the same compound?
**A.** Active

**Q.** What about the Activity (Rattus norvegicus [37]) of the same compound?
**A.** Active

**Q.** What about the Activity (Rattus norvegicus [38]) of the same compound?
**A.** Active
